The source of these data is US11479555B2, “Substituted 1,2-dihydro-3H-pyrazolo[3,4-D]pyrimidin-3-ones as inhibitors of WEE-1 kinase” (Newave Pharmaceutical Inc., priority 2018, dated 2022).

One series has as its system tumor. Briefly: In vivo xenograft study. To be noted: 7 dose at 100 mg/kg, day 18. More on the design: species or system CB.17 SCID mice. The text has this: The CB.17 SCID mice are obtained at age 6-8 weeks from vendors and acclimated for a minimum 7-day period. The cancer cells are then implanted into the […] mice. Depending on the specific tumor type, tumors are typically detectable about two weeks following implantation. When tumor sizes reach ˜100-200 mm^3, the animals with appreciable tumor size and shape are randomly assigned into groups of 8 mice each, including one vehicle control group and treatment groups. Dosing varies depending on the purpose and length of each study, which typically proceeds for about 3-4 weeks. Tumor sizes and body weight are typically measured three times per week. In addition to the determination of tumor size changes, the last tumor measurement is used to generate the tumor size change ratio (T/C value), a standard metric developed by the National Cancer Institute for xenograft tumor evaluation. […] When tumor regression occurred (ΔT<0), however, the following formula is used: % T/T0=100×ΔT/T0.

The subject of another series is SK-MES-1. Briefly: In vitro cellular anti-proliferation assay (ATPlite), SK-MES-1. The series is classed as cell-based. As to conditions: Homo sapiens, about 72 hours, 5% FBS. Here is the method:
(§1) Cell antiproliferation was assayed by PerkinElmer ATPlite™ Luminescence Assay System. Briefly, the various test cancer cell lines were plated at a density of about 1×10^4 cells per well in Costar 96-well plates, and were incubated with different concentrations of compounds for about 72 hours in medium supplemented with 5% FBS. One lyophilized substrate solution vial was then reconstituted by adding 5 mL of substrate buffer solution, and was agitated gently until the solution was homogeneous. About 50 μL of mammalian cell lysis solution was added to 100 μL of cell suspension per well of a microplate, and the plate was shaken for about five minutes in an orbital shaker at ˜700 rpm. This procedure was used to lyse the cells and to stabilize the ATP. Next, 50 μL substrate solution was added to the wells and microplate was shaken for five minutes in an orbital shaker at ˜700 rpm. Finally, the luminescence was measured by a PerkinElmer TopCount® Microplate Scintillation Counter. Such assays, carried out with a range of doses of test compounds, allowed the determination of the cellular anti-antiproliferative IC50 of the compounds of the present invention.
(§2) The following table lists the LoVo IC50 values of another study for certain compounds of the invention.
A general note: In ATP-based viability assays light output follows the ATP content of the culture.

The next series relates to A498. Kind of series: In vitro cellular anti-proliferation assay (ATPlite), A498. The series is classed as cell-based. To be noted: Homo sapiens, about 72 hours, 5% FBS. Here is the method:
as §1, §2

A further series relates to LoVo. Briefly: In vitro cellular anti-proliferation assay (ATPlite), LoVo. In kind it is cell-based. To be noted: Homo sapiens, about 72 hours, 5% FBS. Here is the method: as §1, §2
A short description of another series: Mice CNS PK study. The series is classed as in vivo. As to conditions: CD-1 mouse; for AUC(0-t): plasma, read-out: Plasma AUClast; for Kp: brain/plasma (printed as Brain/Blood), read-out: Brain/Blood Ratio. Here is the method:
The pharmacokinetics of compounds were evaluated in CD-1 mouse via Intravenous and Oral Administration. The iv dose was administered as a slow bolus in the Jugular vein, and oral doses were administered by gavage. The formulation for IV dosing is 5% DMSO in “20% HPBCD in water, and the PO formulation is 2.5% DMSO, 10% EtOH, 20% Cremphor EL, 67.5% D5W. The PK time point for the IV arm is 5, 15, 30 min, 1, 2, 4, 6, 8, 12, 24 hours post dose, and for PO arm is 15, 30 min, 1, 2, 4, 6, 8, 12, 24 hours post dose.
Plasma Samples Processing and Storage: Approximately 0.2 mL blood will be collected at each time point. Keep blood at room temperature and collect plasma within 15 min by centrifugation at 4000 g for 5 minutes in a 4° C. centrifuge. Plasma samples will be stored in polypropylene tubes. The plasma samples will be stored in a freezer at −75±15° C. prior to analysis.
Brain Samples Processing and Storage: The mice will be fully exsanguinated prior to tissue collection. Procedure: open chest cavity, cut ventricle and perform a gentle iv saline flush (saline flush volume ˜10 ml) with the animal placed head down at a 45 degree angle to facilitate blood removal. Tissue samples will be collected at adopted time point, quick frozen in ice box and kept at −75±15° C. All tissue samples will be weighted and homogenized with water by tissue weight (g) to water volume (mL) at ratio 1:3 before analysis. The actual concentration is the detected value multiplied by the dilution factor.
Concentrations of compounds in the plasma samples will be analyzed using a LC-MS/MS method. WinNonlin (Phoenix™, version 6.1) or other similar software will be used for pharmacokinetic calculations. The following pharmacokinetic parameters will be calculated, whenever possible from the plasma concentration versus time data: IV administration: C0, CL, Vd, T1/2, AUCinf, AUClast, MRT, Number of Points for Regression; PO administration: Cmax, Tmax, T1/2, AUCinf, AUClast, F %, Number of Points for Regression. The pharmacokinetic data will be described using descriptive statistics such as mean, standard deviation. Additional pharmacokinetic or statistical analysis may be performed at the discretion of the contributing scientist, and will be documented in the data summary.

For another series, the target named is Wee1 kinase (Homo sapiens (Human), UniProt P30291). Kind of series: Wee-1 biochemical assay. As to conditions: another study. On the procedure: In determination of the Weel kinase activity, a synthetic peptide, Poly(Lys,Tyr) Hydrobromide (Lys:Tyr (4:1)) bought from Sigma was used as the substrate. The amount of the reaction mixture was 21.1 μL; and the composition of the reaction buffer was 50 mM Tris-HCl buffer (pH 7.4)/10 mM magnesium chloride/1 mM dithiothreitol. The purified Weel kinase, 2.5 μg of the substrate peptide, 10 μM of non-labeled adenosine triphosphate (ATP) and 1 μCi of [γ-^33P]-labeled ATP (2500 Ci/mmol or more) were added to it, and incubated at 30° C. for 30 minutes. Next, 10 μL of 350 mM phosphate buffer was added to the reaction mixture to stop the reaction. The substrate peptide was adsorbed by a P81 paper filter 96-well plate, then washed a few times with 130 mM phosphate buffer, and its radioactivity was counted with a liquid scintillation counter. The [γ-^33P]-labeled ATP was bought from Amersham Bioscience. To add the test compound to the reaction system, the compound was diluted with dimethylsulfoxide (DMSO) to prepare a series of dilutions. 1.1 μL of each dilution was added to the reaction system. As a control, 1.1 μL of DMSO was added to the reaction system. Such assays, carried out with a range of doses of test compounds, allow the determination of the Wee1 IC50 of the compounds of the present invention
Sequence of Wee1 kinase (P30291 whole entry): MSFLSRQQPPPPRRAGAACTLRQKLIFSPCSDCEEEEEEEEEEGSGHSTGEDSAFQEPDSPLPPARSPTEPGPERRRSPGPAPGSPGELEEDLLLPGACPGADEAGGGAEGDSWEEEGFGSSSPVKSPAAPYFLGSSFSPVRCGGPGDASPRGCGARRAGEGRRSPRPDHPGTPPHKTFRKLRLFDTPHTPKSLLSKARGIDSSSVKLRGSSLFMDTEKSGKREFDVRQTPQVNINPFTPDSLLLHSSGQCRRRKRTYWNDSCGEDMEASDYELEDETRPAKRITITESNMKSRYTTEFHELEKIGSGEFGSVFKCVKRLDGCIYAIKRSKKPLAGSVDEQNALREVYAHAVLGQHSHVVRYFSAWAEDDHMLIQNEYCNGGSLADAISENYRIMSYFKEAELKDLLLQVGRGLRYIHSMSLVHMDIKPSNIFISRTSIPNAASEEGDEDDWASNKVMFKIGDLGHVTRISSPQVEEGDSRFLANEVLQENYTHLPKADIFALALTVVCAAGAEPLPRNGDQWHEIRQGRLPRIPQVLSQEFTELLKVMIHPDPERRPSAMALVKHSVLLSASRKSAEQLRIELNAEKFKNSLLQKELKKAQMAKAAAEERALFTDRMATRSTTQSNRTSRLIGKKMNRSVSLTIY

Another series has as its system WEE1. To be noted: inhibits WEE1 activity, induces DNA damage and G2 checkpoint escape; read-out: EC50 in cell based assays; cited from earlier work.

As for `C=CCn1c(=O)c2cnc(Nc3cnn(C4CCN(C5CCC(F)(F)CC5)CC4)c3)nc2n1-c1cccc(C(C)(C)O)n1.Cl` [Example 3, 6-([1-[1-(4,4-difluorocyclohexyl)piperidin-4-yl]-1H-pyrazol-4-yl]amino)-1-[6-(2-hydroxypropan-2-yl)pyridin-2-yl]-2-(prop-2-en-1-yl)-1H,2H,3H-pyrazolo[3,4-d]pyrimidin-3-one Hydrochloride], in the series with tumor, the tumor regression result is “complete regression of the tumor”.
For orientation: IC50 means the concentration that gives 50% inhibition. For `CC(C)n1c(=O)c2cnc(Nc3ccc(N4CCN(C)CC4)cc3)nc2n1-c1cccc(C2CC2)n1` [Example 15, 1-(6-cyclopropylpyridin-2-yl)-2-isopropyl-6-((4-(4-methylpiperazin-1-yl)phenyl)amino)-1,2-dihydro-3H-pyrazolo[3,4-d]pyrimidin-3-one], the IC50 was under 0.25 µM in the series on SK-MES-1, under 0.5 µM in the series with A498, under 0.3 µM in the series with LoVo and under 0.0015 µM at Wee1 kinase. Moreover, the “Brain AUClast” value in “Mice CNS PK study” was 4,910 h*ng/mL. In “Mice CNS PK study”, the AUC(0-t) is 4710 ng·h/mL. Further, in the series “Mice CNS PK study”, the Kp amounted to 1.
By EC50 is commonly meant the concentration at which the effect is half-maximal. Compound `C=CCn1c(=O)c2cnc(Nc3ccc(N4CCN(C)CC4)cc3)nc2n1-c1cccc(C(C)(C)O)n1` [AZD1775, reference compound] showed an IC50 in the series on SK-MES-1 of under 0.25 µM. The compound also showed an IC50 with A498 of under 0.5 µM. In addition, in the series on LoVo, the IC50 was under 0.3 µM. Besides, the EC50 in the series with WEE1 was […]. In addition, in the series “Mice CNS PK study”, the “Brain AUClast” value is 524 ng·h/mL, the AUC(0-t) was determined as 9000 ng·h/mL and the Kp is 0.058.
For `CC(C)n1c(=O)c2cnc(Nc3ccc(N4CCN(C)CC4)cc3)nc2n1-c1cccc(C(C)(C)F)n1` [Example 13, 1-(6-(2-fluoropropan-2-yl)pyridin-2-yl)-2-isopropyl-6-((4-(4-methylpiperazin-1-yl)phenyl)amino)-1,2-dihydro-3H-pyrazolo[3,4-d]pyrimidin-3-one], the IC50 was under 0.25 µM with SK-MES-1, under 0.5 µM with A498, under 0.3 µM with LoVo and under 0.0015 µM against Wee1 kinase. Moreover, the “Brain AUClast” value in the series “Mice CNS PK study” is 11,907 h*ng/mL. Moreover, in the series “Mice CNS PK study”, the AUC(0-t) is 8660 ng·h/mL. Moreover, in the series “Mice CNS PK study”, the Kp came out at 1.38.
On to `CC(C)n1c(=O)c2cnc(Nc3ccc(N4CCN(C)CC4)cc3)nc2n1-c1cccc(C(C)(C)C(F)(F)F)n1` [Example 11, 2-isopropyl-6-((4-(4-methylpiperazin-1-yl)phenyl)amino)-1-(6-(1,1,1-trifluoro-2-methylpropan-2-yl)pyridin-2-yl)-1,2-dihydro-3H-pyrazolo[3,4-d]pyrimidin-3-one], for which the IC50 was under 0.25 µM in the series on SK-MES-1, under 0.5 µM with A498, under 0.3 µM with LoVo and under 0.0015 µM on Wee1 kinase. Besides, in the series “Mice CNS PK study”, the “Brain AUClast” value is given as 12,002 h*ng/mL. For the same compound, the AUC(0-t) in “Mice CNS PK study” is 7510 ng·h/mL. The Kp in the series “Mice CNS PK study” was found to be 1.6.
